Entries after “also recorded” stand apart in the source; their conditions may differ.
What was measured:
[1] = tested on: human proximal tubular cells (HK2); type: cell-based; settings: pretreatment 1 h with 1.5 μM OA-NO2, then 24 h 1 μM cisplatin
Procedure: FIG. 6. Bar graphs show the effects of nitrated fatty acid OA-NO2 on cisplatin-induced apoptosis in vivo and in vitro. A), Caspase activity in the mouse kidney. N=5-6 in each group. B), Caspase activity in cultured human proximal tubular cells (HK2). Following pretreatment for 1 h with vehicle or 1.5 μM OA-NO2, the cells were exposed for 24 h to 1 μM cisplatin. N=3 in each group. Data are mean±SE. A single dose of i.p. injection of cisplatin induced renal dysfunction as indicated by the marked rise in plasma BUN (FIG. 1), accompanied by severe renal histological abnormalities characterized by distortion of the overall renal morphology, dilation of renal tubules, and appearance of protein cast (FIG. 2).

[2] = tested on: B6129SF2/J mice (cisplatin-induced toxicity); test: Effects of OA-NO2 on cisplatin-induced toxicity in mice; type: in vivo, mouse; settings: cisplatin 20 mg/kg i.p.
Procedure: FIG. 1. A bar graph showing the plasma concentrations of Blood Urea Nitrogen (BUN) in mice under the conditions indicated. N=5-6. Data are mean±n SE. B6129S2/J mice (male, 3-4-mo-old) received vehicle (Control) or a single i.p. injection of cisplatin alone (20 mg/kg in saline). After 20 min, the cisplatin group was randomly divided to receive an i.p injection of OA-NO2 (400 mg/kg in ethanol) or an equivalent amount of ethanol at 6-h intervals for 48 h.
Male 3-4-month-old B6129SF2/J mice were from Jackson Laboratories (Bar Harbor, Me.). All animals were housed in an air-conditioned room with a 12-hour light/dark cycle. All procedures and protocols were in accordance with guidelines set by the Laboratory Animal Care Committee at the University of Utah.
Protocol for testing effects of OA-NO2 on cisplatin-induced toxicity in B6129SF2/J mice. B6129S2/J mice (male, 3-4-mo-old) received vehicle (saline) or a single i.p. (intraperitoneal) injection of cisplatin alone (20 mg/kg in saline). After 20 minutes, the cisplatin group was randomly divided to receive an i.p. injection of OA-NO2 (400 mg/kg in ethanol) or an equivalent amount of ethanol at 6-hour intervals for 48 hours. The control group also received an i.p. injection of the equivalent amount of ethanol at the same frequencies. At the end of the experiments, under isoflurane anesthesia, blood was withdrawn from the vena cava using 1 cc insulin syringe and kidneys were harvested for analysis of morphology and gene expression.

[3] = tested on: BALB/c mice (ADR nephropathy); test: Adriamycin (ADR) nephropathy in mice, OA-NO2 pretreatment via osmotic mini-pump; type: in vivo, mouse; settings: for albuminuria (urinary albumin): control 33.39±3.50; for plasma albumin: control 1.01±0.15
Procedure: Male BABL/C mice were purchased from the Jackson Laboratories (Bar Harbor, Me., USA). Mice were maintained in a temperature-controlled barrier facility with a 12:12-h light-dark cycle and were given free access to standard laboratory chow and tap water. Mice were randomized into three groups: 1) control, 2) Adriamycin (ADR), and 3) ADR+ nitro-oleic acid (OA-NO2). In Group 3, OA-NO2 (dissolved in ethanol) was administered at 5 mg/kg/day via subcutaneously implanted osmotic mini-pump and vehicle (ethanol) was given to the other two groups. This dose was chosen based a previous study (35). After 2 days of pretreatment with OA-NO2, Groups 2 and 3 received a single tail vein injection of ADR at 10 mg/kg. Group 1 received a single tail vein injection of saline. Twenty four-hour urine was collected with using metabolic cages. Seven days after ADR treatment, all mice were killed and kidneys were immediately harvested gene expression or histological analyses. All protocols employing mice were conducted in accordance the principles and guidance of the University of Utah Institutional Animal Care and Committee.
Urine samples were centrifuged for 5 minutes at 10,000 rpm. Blood samples from anesthetized mice were collected by puncturing the vena cava using a 1-ml insulin syringe containing 50 μl of 1 mM EDTA in the absence of protease inhibitors. Urine and plasma albumin was determined using a murine microalbuminuria enzyme-linked immunosorbent assay kit (Cat#1011, EXOCELL). Plasma triglyceride level was determined using a LabAssay Triglyceride ELISA Kit (Cat#290-63701, WAKO). Urine and plasma levels of urea were measured by Urea Nitrogen Direct kit (Cat#0580-250, Stanbio Laboratory), and urine and plasma levels of creatinine were measured by Creatinine Liquicolor kit (Cat#0420-250, Stanbio Laboratory).
Under anesthesia, kidneys were removed and fixed with 4% paraformaldehyde. The tissues were subsequently embedded in paraffin and 4-μm sections were cut and stained with periodic acid Schiff (PAS). Glomerular sclerosis was assessed as follows using a semiquantitative score: grade 0, normal appearance; grade I, involvement of up to 25% of the glomerulus; grade II, involvement of 25 to 50% of the glomerulus; grade III, involvement of 50 to 75% of the glomerulus; grade IV, involvement of 75 to 100% of the glomerulus. A glomerulosclerosis index (GSI) was calculated by multiplying the number of glomeruli with a sclerosis score of I by one, the number with a score of II by two, III by three, and IV by four. These values were summed and divided by the number of glomeruli assessed, including those with a sclerosis score of zero. The SI for each kidney specimen was a sum of the points from 30 glomeruli. Tubulointerstitial injury (defined as tubular atrophy, dilatation, thickening of the basement membrane, protein cast) by semiquantitative analysis. Thirty cortical fields from each animal were examined at ×200 magnification and graded according to a scale of 0 to 4: 0, no tubulointerstitial injury 1, <25% of the tubulointerstitium injured; 2, 25% to 50% of the tubulointerstitium injured; 3, 51% to 75% of the tubulointerstitium injured; and 4, 76% to 100% of the tubulointerstitium injured. All sections were examined in blind manner.
Immunohistochemical staining was performed. Anti-WT1 antibody was purchased from Dako (Mob437, Dako).
Total RNA was isolated using TRIzol (Invitrogen, Carlsbad, Calif.), and first-strand cDNAs were synthesized from 2 μg of total RNA in […] reaction using SuperScript (Invitrogen). The first strand cDNAs served as the template for quantitative PCR performed in Applied Biosystems 7900 Real Time PCR System using SYBR green PCR reagent (Applied Biosystems, Foster City, Calif., USA). The amplification was carried out for 40 cycles with conditions of 15-s denaturation at 95° C. […]

[4] = OA-NO2 400 mg/kg i.p. at 6-h intervals for 48 h
[5] = OA-NO2 400 mg/kg i.p. at 6-h intervals for 48 h, real time RT-PCR
[6] = posttreatment OA-NO2 400 mg/kg i.p. at 6-h intervals for 48 h
[7] = ADR+OA-NO2 group vs ADR, P<0.05
[8] = OA-NO2 treatment in ADR mice, P<0.05
[9] = OA-NO2 treatment in ADR mice, real-time PCR and Western blotting, P<0.05

nitrooleic acid [OA-NO2]
cisplatin-induced caspase activity [1]: almost completely normalized
activity of caspase in the mouse kidney [2, 4]: attenuated or completely corrected
kidney thiobarbituric acid-reactive substances (TBARS) [2, 4]: attenuated or completely corrected
plasma level of MPO ([2]; OA-NO2 400 mg/kg i.p. at 6-h intervals for 48 h, EIA): reduces; also recorded: attenuated or completely corrected
kidney expression of NADPH oxidase subunit gp91phox [2, 5]: attenuated or completely corrected
kidney expression of NADPH oxidase subunit p47phox [2, 5]: attenuated or completely corrected
plasma BUN (renal function) [2, 6]: improves renal function; also recorded: markedly attenuated
renal histological abnormalities (renal morphology, dilation of tubules, protein cast) [2, 6]: improves renal morphology; also recorded: markedly attenuated
renal ZO-1 mRNA (qRT-PCR) ([3]; ADR+OA-NO2 group): significant elevation
number of WT1-positive cells (podocytes), immunohistochemistry ([3]; ADR+OA-NO2 group vs ADR group): partially restored
plasma BUN ([3]; ADR+OA-NO2 group vs ADR group): significantly attenuated
plasma creatinine ([3]; ADR+OA-NO2 group vs ADR group): significantly attenuated
renal gp91phox protein (immunoblot) ([3]; ADR+OA-NO2 group vs ADR, P<0.01): further confirmed at the protein level
renal mRNA expression of gp91phox [3, 7]: the increase was less
renal mRNA expression of p47phox [3, 7]: the increase was less
plasma triglyceride ([3]; ADR+OA-NO2 group, OA-NO2 5 mg/kg/day): 212.70 ± 39.22 mg/dL
albuminuria (urinary albumin) ([3]; ADR+OA-NO2 group, day 5 after ADR 10 mg/kg i.v., OA-NO2 5 mg/kg/day s.c. mini-pump from 2 days before): 342.40±33.26 μg/24 h
plasma albumin ([3]; ADR+OA-NO2 group, day 7 after ADR, OA-NO2 5 mg/kg/day): 0.58 ± 0.13 g/dL
mice having mild ascites at sacrifice ([3]; ADR+OA-NO2 mice, OA-NO2 5 mg/kg/day): 20%
glomerulosclerotic index (GSI), PAS staining ([3]; ADR+OA-NO2 vs ADR, P<0.05): ameliorates glomerulosclerosis; also recorded: marked reduction
albuminuria (urinary albumin), time course ([3]; ADR+OA-NO2 vs ADR, day 3 and day 7 after ADR injection): ameliorates albuminuria; also recorded: These changes were observed at day 3 and maintained at day 7
tubulointerstitial lesion (TILI) ([3]; ADR+OA-NO2 vs ADR, day 8 after ADR injection): ameliorates
renal expression of IL-1β (qRT-PCR) ([3]; OA-NO2 in ADR mice): suppressed
renal expression of MCP-1 (qRT-PCR) ([3]; OA-NO2 in ADR mice): suppressed
renal expression of TNF-α (qRT-PCR) ([3]; OA-NO2 in ADR mice): suppressed
renal WT1 protein (immunoblotting) ([3]; OA-NO2 pretreatment in ADR mice, P<0.05): prevented the downregulation
renal desmin mRNA (qRT-PCR) ([3]; OA-NO2 treatment in ADR mice): prevented this increase
renal TGF-β mRNA expression [3, 8]: dramatic suppression
renal collagen III mRNA expression [3, 8]: dramatic suppression
renal fibronectin (FN) expression [3, 9]: prevented the up-regulation
renal α-SMA expression [3, 9]: prevented the up-regulation
kidney TBARS ([3]; OA-NO2 treatment vs ADR mice): trend of reduction of TBARS levels in response to OA-NO2 treatment but this did not reach a statistical significance
plasma TBARS ([3]; OA-NO2 treatment vs ADR mice): markedly attenuated
urinary TBARS ([3]; OA-NO2 treatment vs ADR mice): markedly attenuated

COc1cccc2c1C(=O)c1c(O)c3c(c(O)c1C2=O)C[C@@](O)(C(=O)CO)C[C@@H]3O[C@H]1C[C@H](N)[C@H](O)[C@H](C)O1 [ADR, doxorubicin (Adriamycin), reference compound]
plasma triglyceride ([3]; ADR group (ADR 10 mg/kg alone)): 396.18 ± 70.94 mg/dL
plasma albumin ([3]; ADR group (ADR 10 mg/kg alone), day 7): 0.28 ± 0.08 g/dL
albuminuria (urinary albumin) ([3]; ADR group (ADR 10 mg/kg tail vein alone), day 5): 508.89±48.52 μg/24 h
mice with severe ascites at sacrifice ([3]; ADR mice (ADR 10 mg/kg alone)): Ninety

Reference: US10568857B2, “Method of treating renal system damage” (The University of Utah Research Foundation, priority 2008, dated 2020)
